Reference: PubChem BioAssay (NCI)
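48-hour exposure; five concentrations; linearly interpolated endpoints. GI50 marks 50% less growth. Definition used: TGI = concentration required for complete inhibition of growth.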

Legend:
Assay in all cases: growth of human tumour cells (NCI), 48 h
OVCAR-4 ovarian = tested on: OVCAR-4 ovarian
MCF7 breast = tested on: MCF7 breast
COLO 205 colon = tested on: COLO 205 colon
T-47D breast = tested on: T-47D breast
HCT-116 colon = tested on: HCT-116 colon
ACHN renal = tested on: ACHN renal
DU-145 prostate = tested on: DU-145 prostate
HL-60(TB) leukemia = tested on: HL-60(TB) leukemia
PC-3 prostate = tested on: PC-3 prostate
OVCAR-3 ovarian = tested on: OVCAR-3 ovarian
SK-OV-3 ovarian = tested on: SK-OV-3 ovarian
RXF 393 renal = tested on: RXF 393 renal
UACC-257 melanoma = tested on: UACC-257 melanoma
A498 renal = tested on: A498 renal
EKVX NSCLC = tested on: EKVX NSCLC
SNB-19 CNS = tested on: SNB-19 CNS
SR leukemia = tested on: SR leukemia
OVCAR-8 ovarian = tested on: OVCAR-8 ovarian
UO-31 renal = tested on: UO-31 renal
NCI-H226 lung = tested on: NCI-H226 lung
HT29 colon = tested on: HT29 colon
KM12 colon = tested on: KM12 colon
786-0 renal = tested on: 786-0 renal
IGROV1 ovarian = tested on: IGROV1 ovarian
MOLT-4 leukemia = tested on: MOLT-4 leukemia
A549 NSCLC = tested on: A549 NSCLC
SF-539 CNS = tested on: SF-539 CNS
SK-MEL-2 melanoma = tested on: SK-MEL-2 melanoma
M14 melanoma = tested on: M14 melanoma
SW-620 colon = tested on: SW-620 colon
SN12C renal = tested on: SN12C renal
HCT-15 colon = tested on: HCT-15 colon
NCI-H522 lung = tested on: NCI-H522 lung
NCI/ADR-RES ovarian = tested on: NCI/ADR-RES ovarian
BT-549 breast = tested on: BT-549 breast
HOP-92 NSCLC = tested on: HOP-92 NSCLC
SF-268 CNS = tested on: SF-268 CNS
HS 578T breast = tested on: HS 578T breast
SK-MEL-28 melanoma = tested on: SK-MEL-28 melanoma
MDA-MB-435 = tested on: MDA-MB-435
OVCAR-5 ovarian = tested on: OVCAR-5 ovarian
SK-MEL-5 melanoma = tested on: SK-MEL-5 melanoma
TK-10 renal = tested on: TK-10 renal
CAKI-1 renal = tested on: CAKI-1 renal
MDA-MB-468 breast = tested on: MDA-MB-468 breast
RPMI-8226 leukemia = tested on: RPMI-8226 leukemia
K-562 leukemia = tested on: K-562 leukemia
HOP-62 NSCLC = tested on: HOP-62 NSCLC
SNB-75 CNS = tested on: SNB-75 CNS
NCI-H23 lung = tested on: NCI-H23 lung
MDA-MB-231 breast = tested on: MDA-MB-231 breast
LOX IMVI melanoma = tested on: LOX IMVI melanoma
HCC-2998 colon = tested on: HCC-2998 colon
MALME-3M melanoma = tested on: MALME-3M melanoma
U251 CNS = tested on: U251 CNS
UACC-62 melanoma = tested on: UACC-62 melanoma
SF-295 CNS = tested on: SF-295 CNS
CCRF-CEM leukemia = tested on: CCRF-CEM leukemia
NCI-H460 lung = tested on: NCI-H460 lung

CCCCCCn1c(O)c(N=Nc2nc(-c3cc4ccccc4oc3=O)cs2)c2ccccc21
GI50 (OVCAR-4 ovarian): 14.2 µM
TGI (OVCAR-4 ovarian): 27.5 µM
GI50 (MCF7 breast): 12.1 µM
TGI (MCF7 breast): 25.9 µM
GI50 (COLO 205 colon): 11 µM
TGI (COLO 205 colon): 24.9 µM
GI50 (T-47D breast): 12.7 µM
TGI (T-47D breast): 32.5 µM
GI50 (HCT-116 colon): 11.1 µM
TGI (HCT-116 colon): 23.4 µM
GI50 (ACHN renal): 16.7 µM
TGI (ACHN renal): 30.3 µM
GI50 (DU-145 prostate): 16.3 µM
TGI (DU-145 prostate): 30.1 µM
GI50 (HL-60(TB) leukemia): 18.8 µM
TGI (HL-60(TB) leukemia): 45.1 µM
GI50 (PC-3 prostate): 10.6 µM
TGI (PC-3 prostate): 23.5 µM
GI50 (OVCAR-3 ovarian): 16.9 µM
TGI (OVCAR-3 ovarian): 30.8 µM
GI50 (SK-OV-3 ovarian): 15.2 µM
TGI (SK-OV-3 ovarian): 29.1 µM
GI50 (RXF 393 renal): 8.91 µM
TGI (RXF 393 renal): 21.1 µM
GI50 (UACC-257 melanoma): 17.4 µM
TGI (UACC-257 melanoma): 31.7 µM
GI50 (A498 renal): 19.7 µM
TGI (A498 renal): 33.9 µM
GI50 (EKVX NSCLC): 9.61 µM
TGI (EKVX NSCLC): 21.4 µM
GI50 (SNB-19 CNS): 15.1 µM
TGI (SNB-19 CNS): 28.4 µM
GI50 (SR leukemia): 7.19 µM
TGI (SR leukemia): 34.8 µM
GI50 (OVCAR-8 ovarian): 17.1 µM
TGI (OVCAR-8 ovarian): 32.1 µM
GI50 (UO-31 renal): 14.1 µM
TGI (UO-31 renal): 27.1 µM
GI50 (NCI-H226 lung): 14.9 µM
TGI (NCI-H226 lung): 28.1 µM
GI50 (HT29 colon): 11.6 µM
TGI (HT29 colon): 24.4 µM
GI50 (KM12 colon): 17.9 µM
TGI (KM12 colon): 33.8 µM
GI50 (786-0 renal): 17.5 µM
TGI (786-0 renal): 31.4 µM
GI50 (IGROV1 ovarian): 17.2 µM
TGI (IGROV1 ovarian): 30.9 µM
GI50 (MOLT-4 leukemia): 15.8 µM
TGI (MOLT-4 leukemia): 42.6 µM
GI50 (A549 NSCLC): 13.6 µM
TGI (A549 NSCLC): 27.7 µM
GI50 (SF-539 CNS): 16 µM
TGI (SF-539 CNS): 29.5 µM
GI50 (SK-MEL-2 melanoma): 18.3 µM
TGI (SK-MEL-2 melanoma): 32.4 µM
GI50 (M14 melanoma): 15 µM
TGI (M14 melanoma): 28.8 µM
GI50 (SW-620 colon): 16.6 µM
TGI (SW-620 colon): 31.3 µM
GI50 (SN12C renal): 17.4 µM
TGI (SN12C renal): 31.2 µM
GI50 (HCT-15 colon): 15.2 µM
TGI (HCT-15 colon): 28.7 µM
GI50 (NCI-H522 lung): 4.1 µM
TGI (NCI-H522 lung): 14 µM
GI50 (NCI/ADR-RES ovarian): 15.1 µM
TGI (NCI/ADR-RES ovarian): 28.9 µM
GI50 (BT-549 breast): 15.7 µM
TGI (BT-549 breast): 29.2 µM
GI50 (HOP-92 NSCLC): 11 µM
TGI (HOP-92 NSCLC): 23.9 µM
GI50 (SF-268 CNS): 17.3 µM
TGI (SF-268 CNS): 38.6 µM
GI50 (HS 578T breast): 7.91 µM
TGI (HS 578T breast): 52.3 µM
GI50 (SK-MEL-28 melanoma): 13.9 µM
TGI (SK-MEL-28 melanoma): 26.8 µM
GI50 (MDA-MB-435): 17 µM
TGI (MDA-MB-435): 31.2 µM
GI50 (OVCAR-5 ovarian): 17.1 µM
TGI (OVCAR-5 ovarian): 30.8 µM
GI50 (SK-MEL-5 melanoma): 9.02 µM
TGI (SK-MEL-5 melanoma): 21.1 µM
GI50 (TK-10 renal): 19.4 µM
TGI (TK-10 renal): 33.6 µM
GI50 (CAKI-1 renal): 17.7 µM
TGI (CAKI-1 renal): 32.2 µM
GI50 (MDA-MB-468 breast): 15.7 µM
TGI (MDA-MB-468 breast): 29.7 µM
GI50 (RPMI-8226 leukemia): 17.2 µM
TGI (RPMI-8226 leukemia): 53.1 µM
GI50 (K-562 leukemia): 15.2 µM
TGI (K-562 leukemia): 43.8 µM
GI50 (HOP-62 NSCLC): 16.2 µM
TGI (HOP-62 NSCLC): 30.3 µM
GI50 (SNB-75 CNS): 12 µM
TGI (SNB-75 CNS): 24.8 µM
GI50 (NCI-H23 lung): 12.2 µM
TGI (NCI-H23 lung): 24.6 µM
GI50 (MDA-MB-231 breast): 11.6 µM
TGI (MDA-MB-231 breast): 23.8 µM
GI50 (LOX IMVI melanoma): 15.5 µM
TGI (LOX IMVI melanoma): 28.9 µM
GI50 (HCC-2998 colon): 16.2 µM
TGI (HCC-2998 colon): 29.7 µM
GI50 (MALME-3M melanoma): 16.9 µM
TGI (MALME-3M melanoma): 30.6 µM
GI50 (U251 CNS): 15.8 µM
TGI (U251 CNS): 29.9 µM
GI50 (UACC-62 melanoma): 13.7 µM
TGI (UACC-62 melanoma): 26.5 µM
GI50 (SF-295 CNS): 14.4 µM
TGI (SF-295 CNS): 27.5 µM
GI50 (CCRF-CEM leukemia): 10.4 µM
TGI (CCRF-CEM leukemia): 44.8 µM
GI50 (NCI-H460 lung): 15.1 µM
TGI (NCI-H460 lung): 30.1 µM
